Values quoted from earlier work as cited in US20140012157A1, “Monobody Sensors for Monitoring Neuromuscular Blockade” (priority 2007, published 2014).

Legend:
[1] = tested on: isolated cat anterior tibialis and sartorius muscles
[2] = manufacturer's recommended intubation dose
[3] = PTC of 1 measured; from t=18.8−6.46√PTC

Row | SMILES | receptors that had to be blocked by the antagonist before block was noticeable [1] [%] | receptors that had to be blocked for near complete blockade [1] [%] | 2×ED 95 dose (double the dose that is effective for 95% of the population) [2] [mg/kg] | time until return of the TOF [3] [min]
1 | COc1cc2c3cc1Oc1cc(ccc1O)C[C@@H]1c4c(cc(OC)c(O)c4Oc4ccc(cc4)C[C@@H]3N(C)CC2)CC[N+]1(C)C [tubocurarine] | 76 | 92 | – | –
2 | C=CC[N+]1([C@H]2C[C@H]3[C@@H]4CC[C@H]5C[C@H](O)[C@@H](N6CCOCC6)C[C@]5(C)[C@H]4CC[C@]3(C)[C@H]2OC(C)=O)CCCC1 [rocuronium] | – | – | 0.6 | 12.34
